Measurements reported in patent US20080207505A1, “Bna Conjugates and Methods of Use” (priority 2005, published 2008).

System: normal dogs
Assay: Oral administration of hBNP-021 versus native hBNP in normal dogs (randomized crossover)
Conditions: dog, oral 350 ug/kg
Method: Immediately prior to oral dosing, the powder (either hBNP or hBNP conjugate) was dissolved in a buffered formulation to a concentration of 1.25 mg/mL.
MAP and blood samplings were repeated at 10, 30, 60, 120, 180, and 240 minutes after oral administration. Blood samples were collected in pre-chilled EDTA tubes and immediately placed on ice and centrifuged at −4° C. Plasma was stored at −80° C. until analysis. After extraction, plasma cANP, cBNP, hBNP and cGMP were assessed by radioimmunoassay as previously described (Saito, Y. et al. 1989; Kambayashi, Y. et al, 1990).
Results are expressed as mean ±SEM. Data were assessed by 1-way ANOVA for comparisons within groups followed by post hoc Dunnett's test. Two-way ANOVA was used for comparisons between groups, followed by Bonferroni posttest. Student's paired t test was performed for single comparisons between groups (Graph-Pad Prism software 4.0). Statistical significance was accepted at a value of P<0.05.

CC[C@H](C)[C@@H]1NC(=O)[C@H](CCCNC(=N)N)NC(=O)[C@H](CC(=O)O)NC(=O)[C@H](CCSC)NC(=O)[C@H](CCCCN)NC(=O)[C@H](CCCNC(=N)N)NC(=O)CNC(=O)[C@H](Cc2ccccc2)NC(=O)[C@@H](NC(=O)CNC(=O)[C@H](CO)NC(=O)CNC(=O)[C@H](CCC(N)=O)NC(=O)[C@@H](NC(=O)[C@H](CCSC)NC(=O)[C@H](CCCCN)NC(=O)[C@@H]2CCCN2C(=O)[C@@H](N)CO)C(C)C)CSSC[C@@H](C(=O)N[C@@H](CCCCN)C(=O)N[C@H](C(=O)N[C@@H](CC(C)C)C(=O)N[C@@H](CCCN=C(N)N)C(=O)N[C@@H](CCCN=C(N)N)C(=O)N[C@@H](Cc2cnc[nH]2)C(=O)O)C(C)C)NC(=O)CNC(=O)[C@H](CC(C)C)NC(=O)CNC(=O)[C@H](CO)NC(=O)[C@H](CO)NC(=O)[C@H](CO)NC(=O)[C@H](CO)NC1=O [Native hBNP, reference compound]
plasma hBNP after oral administration: detected in lower levels
